Assay type in all cases: physicochemical
A short description of data set [1]: Dissolution study with DHEA concentration measured by HPLC over time. Particulars: for solubility: aqueous dissolution study (pH 6.8 buffer, ambient temperature). How it is done: High performance liquid chromatography (HPLC) analyses were carried out on an Agilent 1100 series instrument equipped with a UV detector using the following materials and operating parameters:
Calibration data used previously and standards analyzed prior to the samples were used to generate concentrations from peak areas.
At selected time points (10 minutes, 30 minutes, 1 hour, 2 hours, and 5 hours) the slurry was centrifuged and 700 μL of the liquid phase was withdrawn and passed through a 0.5 μm PTFE filter. The filtrate was concentrated in a purge of dry air until all the water evaporated, leaving a solid that was analyzed by HPLC. […] The pH of the filtrate was measured using a Thermo Scientific Orion 3 Star pH meter. The collected solid was analyzed by XRPD. […]
Further dissolution studies with concentration measurements at 10 minutes, 30 minutes, 1 hour, 2 hours, 5 hours, and overnight were conducted. Three such experiments were carried out, using DHEA polymorph form I (FI), the DHEA/D-fructose cocrystal, and the DHEA/glutaric acid cocrystal. […] All of the data are summarized in FIG. 10 through FIG. 14 and the data are plotted in FIG. 15 through FIG. 19.
Note that in each of the plots shown in […] the results of two experiments (time points at <10 min and time points at >10 minutes) are shown on one graph. In order to better visualize the curves, the x axes are in logarithmic scales (FIGS. 15-17). The tables shown in FIGS. 12 and 13 were derived from single experiments having time points at <10 minutes. The x axes on those plots are in linear scales (FIGS. 18 and 19).

Data set [2] in a line: Slurry of DHEA in simulated intestinal fluid, solid form by XRPD. The conditions noted are these: about 3 hrs at room temperature, XRPD 3171.
Data set [3] is described as follows: Dissolution of formulation slurries (Plasdone S630 + Polysorbate 80) in simulated intestinal fluid. The conditions noted are these: simulated intestinal fluid plus aqueous formulation slurry, aqueous with cosolvent or surfactant or cyclodextrin, thermodynamic from solid; SIF plus water containing 2% Plasdone S630 and 1% Polysorbate 80, 37° C.; read-out: equilibrium solubility in formulation/SIF system. The protocol: Simulated intestinal fluid (SIF) was prepared by dissolving 21.6 mg of sodium hydroxide, 168.8 mg of sodium dihydrogen phosphate dihydrate, 311.6 mg of sodium chloride, and 113.0 mg of SIF Powder Original (Biorelevant) in 50 mL of water. A 100-mL, round-bottom flask was charged with 10 mL of SIF and a stir bar. The flask was placed in a 37° C. bath and stirring was begun. A 20-mL vial was charged with 10 mL of water and placed in a 37° C. bath.
Based on the inhibitory effects found in the excipient screen, further studies with formulation slurries containing the cocrystals suspended in water were used, in which both Plasdone S-630 and Polysorbate 80 are dissolved. The formulation recipe and dissolution procedure are: bring 5 mL of simulated intestinal fluid (SIF) to 37° C., add about 6 mg of a cocrystal into 5 mL of water (at 37° C.) containing 2% Plasdone S630 and 1% Polysorbate 80 to give the formulation slurry, add the formulation slurry to the SIF, pull samples, filter, and analyze by HPLC. A control experiment was carried out in which DHEA was used instead of a cocrystal.
For FIGS. 44 and 45, to the […]-vial of SIF (20-mL vial was charged with 10 mL of water and placed in a 37° C. bath) 12.1 mg of DHEA (from sample TL876) was added. The vial was capped and shaken, and the resulting slurry was poured into the round-bottom flask. […] The supernatants were analyzed by HPLC. […]

Converted amounts (≈) assume the structure as drawn. Where two headings read alike, the source gives them in different places.

Data on three compounds can be found in US10130713B2, “Cocrystalline DHEA formulations” (University of Houston System, priority 2013, dated 2018).

`C[C@]12CC[C@H](O)CC1=CC[C@@H]1[C@@H]2CC[C@]2(C)C(=O)CC[C@@H]12` [DHEA hydrate S1, Dehydroepiandrosterone]: the solubility entry in data set [1] (listed as DHEA (form S1)) is recorded as “about 17 μg/mL”. The solubility thermodynamic in data set [1] (pH 6.8 phosphate buffer, pH 6.8, aqueous buffer, thermodynamic from solid, most stable form in the presence of water, read-out: equilibrium solubility) is 17 µg/mL.

Regarding `C[C@]12CC[C@H](O)CC1=CC[C@@H]1[C@@H]2CC[C@]2(C)C(=O)CC[C@@H]12` [DHEA polymorph form I (FI), Dehydroepiandrosterone], the “solid form after slurrying in SIF” value in data set [2] is listed as “mostly the hydrate S1 form”. In data set [1] (10 minutes, 30 minutes, 1 hour, 2 hours, 5 hours, overnight), the “change in concentration of DHEA with time” value is listed as “no change in concentration of DHEA with time”. The “remaining solids after dissolution experiment” value in data set [1] (after overnight experiment) was “DHEA form S2 (monohydrate)”. The “time for transformation of anhydrate to monohydrate to be complete” value in data set [1] (aqueous dissolution study) is reported as “about 2 hours”. Besides, the solubility in data set [1] (pH 6.8 phosphate buffer, pH 6.8, aqueous buffer, thermodynamic from solid, read-out: solubility) is about 30 µg/mL (≈ 104 µM).

As for `C[C@]12CC[C@H](O)CC1=CC[C@@H]1[C@@H]2CC[C@]2(C)C(=O)CC[C@@H]12` [DHEA, Dehydroepiandrosterone], in data set [3], the solubility thermodynamic is 120 to 130 µg/mL.
